Legend:
[1] = Aqueous solubility of stabilized nanoprecipitates; assay type: physicochemical; settings: DOPA-stabilized nanoprecipitates
[2] = Particle size, zeta potential and morphology of Nano-Folox (Malvern Nano-ZS, TEM); settings: FIG. 2A
Description: The measurements of particle size and zeta potential of Nano-Folox were performed using the Malvern Nano-ZS (Malvern Instruments, UK)^59. The morphology of nanoprecipitates and Nano-Folox was analyzed using transmission electron microscopy (TEM). Briefly, 5 μL Nano-Folox were added on 400-mesh carbon-filmed copper grids (Agar Scientific) for 2 min. The samples were stained with 2% (w/w) uranyl acetate before the analysis using the JEM1230 (JEOL) TEM. Alternatively, the morphology of the core was analyzed without the negative staining.

[3] = test system: cells; settings: free FdUMP; cited from earlier work
[4] = test system: Hepa1-6 cells; assay: MTT cytotoxicity assay, Hepa1-6; assay type: cell-based; settings: Mus musculus; Hepa1-6, 24 h incubation
Description: (§1) MTT assay was applied to determine in vitro cytotoxicity. CT26 and Hepa1-6 cells (1×10^4/well) were cultured within 96-well plates, respectively. Following one day incubation, 5-Fu, Nano-dUMP and Nano-FdUMP were added to cells for 24 h. […] IC50 was calculated using the GraphPad Prism software.

[5] = test system: CT26 cells; assay: MTT cytotoxicity assay, CT26; assay type: cell-based; settings: Mus musculus; CT26, 24 h incubation
Description: as §1

[6] = test system: CT26-FL3 cells; assay: MTT cytotoxicity assay; assay type: cell-based, mouse
Description: Cytotoxicity of Nano-Folox was estimated using the MTT assay with 3-(4,5-Dimethylthiazol-2-yl)-2,5-diphenyltetrazolium bromide^60. 10,000 CT26-FL3 cells per well were seeded in 96-well plates and incubated for one day. After incubation, cells were added with OxP and Nano-Folox for 24 h under normal growth conditions. Subsequently, cells were added with 20 μL MTT reagent (5 mg/mL in PBS) and incubated for 4 h at 37° C. 150 μL DMSO were used to dissolve the purple formazan products. The results were measured at 570 nm using a microplate reader. The 50% cell growth inhibition (IC50) was estimated using the GraphPad Prism software.

[7] = Tissue distribution of Nano-Folox in orthotopic CRC mice (IVIS, ICP-MS); assay type: in vivo, mouse; settings: 8 h after i.v. administration, 1.5 mg/kg platinum
Description: (§2) The orthotopic CT26-FL3 colorectal tumor model was established as previously described^31.
In addition, — 0.05% (wt) of lipophilic carbocyanine DiD (ThermoFisher) was used to formulate the DiD-labeled Nano-Folox (1.5 mg/kg platinum). Following 8 h i.v. injection of DiD-labeled Nano-Folox, major organs and tumors were collected and analyzed using the IVIS® Kinetics Optical System, with the excitation wavelength at 640 nm and the emission wavelength at 670 nm. The concentration of platinum in major organs and tumors was also measured using ICP-MS^8.

[8] = Pharmacokinetics of platinum in orthotopic CRC mice; assay type: in vivo, mouse; settings: single i.v. injection, one-compartmental model
Description: as §2

Question: With `Nc1nc(=O)c2c([nH]1)NCC(CNc1ccc(C(=O)NC3CCC(=O)[O][Pt]4([NH]C5CCCCC5[NH]4)[O]C3=O)cc1)N2C=O` (stereo not shown) [Pt(DACH).FnA precipitate, dihydrate(1,2-diaminocyclohexane)platinum(II)-folinic acid] as the compound, how does the solubility in water [1] read?
Answer: poorly soluble in water

Question: What about the “particle size of the DOPA-stabilized precipitate” value [2] of the same compound?
Answer: ~100 nm

Question: With `O=c1[nH]c(=O)n([C@H]2C[C@H](O)[C@@H](COP(=O)(O)O)O2)cc1F` [FdUMP, 5-Fluoro-2′-deoxyuridine 5′-monophosphate] as the compound, how does the permeability into cells [3] read?
Answer: impermeable into cells

Question: Which results are given for `O=c1[nH]cc(F)c(=O)[nH]1` [5-Fu, 5-fluorouracil]?
Answer: IC50 [4]: ~70 µM; IC50 [5]: ~70 µM

Question: With `Nc1nc2c(c(=O)[nH]1)N(C=O)C(CNc1ccc(C(=O)N[C@@H](CCC(=O)O)C(=O)O)cc1)CN2` (stereo partly shown) [FnA, folinic acid] as the compound, how does the “proliferation of CT26-FL3 cells” value ([6]; FnA alone, data not shown) read?
Answer: not inhibited

Question: Which results are given for `O=C1[O][Pt]2([NH][C@@H]3CCCC[C@H]3[NH]2)[O]C1=O` [OxP, oxaliplatin]?
Answer: liver uptake of platinum [7]: ~35 % ID/g; tumor accumulation of platinum [7]: ~15 % ID/g; half-life (t1/2) of platinum [8]: ~8 min; IC50 ([6]; 24 h incubation, read-out: IC50 (50% cell growth inhibition)): 24 µM

— patent US20220378936A1, “DELIVERY SYSTEM COMPLEXES COMPRISING A PRECIPITATE OF AN ACTIVE AGENT AND METHODS OF USE” (THE UNIVERSITY OF NORTH CAROLINA AT CHAPEL HILL, priority 2019, published 2022)
